ChEMBL document CHEMBL4130363, “Synthesis and pharmacological evaluation of benzamide derivatives as potent and selective sigma-1 protein ligands” (Eur J Med Chem, 2017)
In brackets after ≈: the same amount, converted by molar mass.

What was measured:
[1] = molecular target: T1, Vasoactive intestinal polypeptide receptor 1 (Homo sapiens) (UniProt P32241); assay: Antagonist activity at recombinant human VPAC1 receptor assessed as inhibition of agonist-induced effect at 10 uM by aequorin reporter based assay; format: functional
T1 sequence (whole entry): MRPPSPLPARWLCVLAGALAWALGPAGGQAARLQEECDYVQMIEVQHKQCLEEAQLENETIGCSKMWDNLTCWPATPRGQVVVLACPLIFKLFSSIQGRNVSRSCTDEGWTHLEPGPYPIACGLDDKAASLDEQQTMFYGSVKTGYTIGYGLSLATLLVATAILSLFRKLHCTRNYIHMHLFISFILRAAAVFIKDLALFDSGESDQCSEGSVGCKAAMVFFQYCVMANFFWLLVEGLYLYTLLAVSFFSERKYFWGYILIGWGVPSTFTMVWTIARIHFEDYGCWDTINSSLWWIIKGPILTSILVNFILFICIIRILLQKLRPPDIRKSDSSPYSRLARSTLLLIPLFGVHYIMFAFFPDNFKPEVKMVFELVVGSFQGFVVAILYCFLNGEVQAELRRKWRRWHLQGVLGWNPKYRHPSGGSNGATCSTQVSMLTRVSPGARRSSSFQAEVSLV

[2] = Metabolic stability in human liver microsomes by LC/MS analysis; format: ADME, microsome
[3] = n-Octanol-PBS buffer distribution coefficient, log D of the compound at pH 7.4; format: physicochemical
[4] = Aqueous solubility of the compound in PBS buffer at pH 7.8; format: physicochemical
[5] = molecular target: T2, Adenosine receptor A1 (Homo sapiens) (UniProt P30542); assay: Antagonist activity at recombinant human adenosine A1 receptor assessed as inhibition of agonist-induced cAMP induction at 10 uM by HTRF assay; format: functional
T2 sequence (whole entry): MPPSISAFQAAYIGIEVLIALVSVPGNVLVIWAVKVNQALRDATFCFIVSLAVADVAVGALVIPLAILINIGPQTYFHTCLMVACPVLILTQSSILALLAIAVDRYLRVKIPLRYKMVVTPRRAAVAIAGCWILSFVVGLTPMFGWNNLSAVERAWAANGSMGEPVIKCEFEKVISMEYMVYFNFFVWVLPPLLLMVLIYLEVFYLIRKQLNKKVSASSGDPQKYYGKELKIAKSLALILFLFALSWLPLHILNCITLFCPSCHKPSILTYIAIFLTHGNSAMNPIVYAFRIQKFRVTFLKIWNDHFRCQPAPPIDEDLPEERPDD

[6] = molecular target: Sigma intracellular receptor 2 (Homo sapiens, UniProt Q5BJF2); assay: Displacement of [3H]-DTG from S2R in human Jurkat cell membranes after 1 hr in presence of (+)-pentazocine by liquid scintillation counting
Sigma intracellular receptor 2, sequence (Q5BJF2 whole entry): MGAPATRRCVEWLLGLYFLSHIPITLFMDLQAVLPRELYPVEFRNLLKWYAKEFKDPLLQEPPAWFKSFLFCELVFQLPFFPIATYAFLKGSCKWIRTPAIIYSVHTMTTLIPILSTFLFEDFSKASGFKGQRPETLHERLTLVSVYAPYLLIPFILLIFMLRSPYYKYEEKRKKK

[7] = molecular target: Sigma non-opioid intracellular receptor 1 (Homo sapiens, UniProt Q99720); assay: Displacement of [3H](+)-pentazocine from S1R in human Jurkat cell membranes after 2 hrs by liquid scintillation counting
Sigma non-opioid intracellular receptor 1, sequence (Q99720 whole entry): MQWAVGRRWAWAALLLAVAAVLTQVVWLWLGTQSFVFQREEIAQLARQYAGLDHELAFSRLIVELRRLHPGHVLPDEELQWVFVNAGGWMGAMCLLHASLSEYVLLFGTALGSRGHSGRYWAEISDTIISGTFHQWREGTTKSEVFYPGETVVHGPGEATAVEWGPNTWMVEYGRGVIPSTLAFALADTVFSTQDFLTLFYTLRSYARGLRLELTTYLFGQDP

Row | SMILES | inhibition [1] [%] | inhibition [5] [%] | also measured
1 | CN(CCCNC(=O)c1ccc(Cl)cc1)CCc1ccccc1 | 17 | -10 | –
2 | CN(CCCNC(=O)c1ccc(Br)cc1)Cc1ccccc1 | 4 | – | –
3 | CCCc1ccc(C(=O)NCCCN(C)Cc2ccccc2)cc1 | 0 | -9 | –
4 | CN(CCCNC(=O)c1ccc(C(F)(F)F)cc1)Cc1ccccc1 | 31 | – | –
5 | CN(CCNC(=O)c1ccc(Cl)cc1)Cc1ccccc1 | 30 | – | Ki [6]: 850 nM; Ki [7]: 3.6 nM
6 | CN(CCCNC(=O)c1cccc(Br)c1)Cc1ccccc1 | 31 | – | –

Continued, in another order:

Row | inhibition [1] [%] | inhibition [5] [%] | SMILES | also measured
7 | 0 | – | CN(CCCNC(=O)c1ccc([N+](=O)[O-])cc1)Cc1ccccc1 | –
8 | 22 | – | CN(CCNC(=O)c1ccc([N+](=O)[O-])cc1)Cc1ccccc1 | –
9 | 7 | – | CN(CCCNC(=O)c1ccc(Cl)cc1)Cc1ccccc1 | Stability [2]: 77%; logD [3]: 2.51; solubility [4]: 173 µM (≈ 54.8 µg/mL)
10 | 1 | -2 | COc1cccc(C(=O)NCCCN(C)Cc2ccccc2)c1 | –
11 | 3 | 2 | CN(CCNC(=O)c1ccc(C#N)cc1)Cc1ccccc1 | –
